Assay results as given in ChEMBL document CHEMBL3885861, “Open TG-GATES”.

Species: Rattus norvegicus
Assay: Open TG-GATES - Regimen: Daily Repeat
Type: toxicity, organism-based, Sprague-Dawley
Parameters: regimen Daily Repeat, gender Male, age 6 weeks
Conditions: in vivo, po, 60 mg/kg, route gavage, dose level High; for APTT / Bas / Eos / Fbg / Hb / Ht / Lym / MCH / MCHC / MCV / Mono / Neu / PT / Plat / RBC / Ret / WBC: tissue Blood; for KIDNEY_L / KIDNEY_R / KIDNEY_TOTAL: tissue Kidney; for LIVER: tissue Liver; for A/G / ALP / ALT / AST / BUN / CRE / Ca / Cl / DBIL / GLC / IP / K / LDH / Na / PL / RALB / TBIL / TC / TG / TP / gamma-GTP: tissue Plasma

## CC(C)NNC(=O)c1ccncc1 [IPRONIAZID]
72 h, time 3 day
  TERMINAL_BW: 184.6 g
  APTT: 22.8 s
  Bas: 0%
  Eos: 0.8%
  Fbg: 317.4 mg/dL
  Hb: 13.1 g/dL
  Ht: 38.2%
  Lym: 86.2%
  MCH: 20.5 pg
  MCHC: 34.4%
  MCV: 59.6 fL
  Mono: 1.6%
  Neu: 10.8%
  PT: 16.9 s
  Plat: 145 x10_4/uL
  RBC: 640.8 x10_4/ul
  Ret: 5.5%
  WBC: 90.9 x10_2/uL
  KIDNEY_L: 0.9 g
  KIDNEY_R: 0.9 g
  KIDNEY_TOTAL: 1.7 g
  LIVER: 8.1 g
  A/G: 1.2
  ALP: 1455.4 IU/L
  ALT: 34 IU/L
  AST: 78.2 IU/L
  BUN: 20.4 mg/dL
  CRE: 0.2 mg/dL
  Ca: 10.2 mg/dL
  Cl: 108.2 meq/L
  DBIL: 0.002 mg/dL
  GLC: 175.4 mg/dL
  IP: 7.2 mg/dL
  K: 4.2 meq/L
  LDH: 305.2 IU/L
  Na: 143.4 meq/L
  PL: 149.6 mg/dL
  RALB: 3.2 g/dL
  TBIL: 0.04 mg/dL
  TC: 89.6 mg/dL
  TG: 61.2 mg/dL
  TP: 5.8 g/dL
  gamma-GTP: 1.2 IU/L
[…], time 7 day
  TERMINAL_BW: 201.3 g
  APTT: 21.6 s
  Bas: 0%
  Eos: 1%
  Fbg: 275.8 mg/dL
  Hb: 11.7 g/dL
  Ht: 33.9%
  Lym: 77.2%
  MCH: 20.4 pg
  MCHC: 34.4%
  MCV: 59.3 fL
  Mono: 2.2%
  Neu: 19%
  PT: 16.3 s
  Plat: 121.7 x10_4/uL
  RBC: 571.6 x10_4/ul
  Ret: 7.4%
  WBC: 126.5 x10_2/uL
  KIDNEY_L: 1 g
  KIDNEY_R: 0.9 g
  KIDNEY_TOTAL: 1.9 g
  LIVER: 8.5 g
  A/G: 1.2
  ALP: 1212.6 IU/L
  ALT: 34.4 IU/L
  AST: 82 IU/L
  BUN: 22.2 mg/dL
  CRE: 0.2 mg/dL
  Ca: 10.1 mg/dL
  Cl: 108 meq/L
  DBIL: 0.024 mg/dL
  GLC: 180.6 mg/dL
  IP: 7 mg/dL
  K: 4 meq/L
  LDH: 241.4 IU/L
  Na: 142.8 meq/L
  PL: 151.6 mg/dL
  RALB: 3.1 g/dL
  TBIL: 0.086 mg/dL
  TC: 85.8 mg/dL
  TG: 55.2 mg/dL
  TP: 5.6 g/dL
  gamma-GTP: 1.6 IU/L
[…], time 14 day
  TERMINAL_BW: 239 g
  APTT: 21.3 s
  Bas: 0%
  Eos: 1%
  Fbg: 302.2 mg/dL
  Hb: 11.4 g/dL
  Ht: 35.7%
  Lym: 78%
  MCH: 22.2 pg
  MCHC: 31.8%
  MCV: 69.8 fL
  Mono: 2%
  Neu: 18.4%
  PT: 16.5 s
  Plat: 115.4 x10_4/uL
  RBC: 511.4 x10_4/ul
  Ret: 19.5%
  WBC: 131.9 x10_2/uL
  KIDNEY_L: 1 g
  KIDNEY_R: 1 g
  KIDNEY_TOTAL: 2.1 g
  LIVER: 10.1 g
  A/G: 1.2
  ALP: 1104 IU/L
  ALT: 41 IU/L
  AST: 79 IU/L
  BUN: 19.6 mg/dL
  CRE: 0.2 mg/dL
  Ca: 10 mg/dL
  Cl: 106.8 meq/L
  DBIL: 0.01 mg/dL
  GLC: 174 mg/dL
  IP: 7 mg/dL
  K: 4.1 meq/L
  LDH: 201.2 IU/L
  Na: 141.4 meq/L
  PL: 165.8 mg/dL
  RALB: 3 g/dL
  TBIL: 0.058 mg/dL
  TC: 92.4 mg/dL
  TG: 82.8 mg/dL
  TP: 5.6 g/dL
  gamma-GTP: 1.8 IU/L
[…], time 28 day
  TERMINAL_BW: 299.7 g
  APTT: 21.5 s
  Bas: 0%
  Eos: 0.8%
  Fbg: 352.8 mg/dL
  Hb: 11.9 g/dL
  Ht: 35%
  Lym: 77%
  MCH: 21.6 pg
  MCHC: 33.9%
  MCV: 63.7 fL
  Mono: 2.2%
  Neu: 18.8%
  PT: 16.9 s
  Plat: 108.7 x10_4/uL
  RBC: 550.2 x10_4/ul
  Ret: 12.4%
  WBC: 121.5 x10_2/uL
  KIDNEY_L: 1.2 g
  KIDNEY_R: 1.2 g
  KIDNEY_TOTAL: 2.4 g
  LIVER: 11.8 g
  A/G: 1.1
  ALP: 1056.8 IU/L
  ALT: 25 IU/L
  AST: 66.8 IU/L
  BUN: 18.6 mg/dL
  CRE: 0.2 mg/dL
  Ca: 10.2 mg/dL
  Cl: 105.8 meq/L
  DBIL: 0.004 mg/dL
  GLC: 182 mg/dL
  IP: 6.6 mg/dL
  K: 4.1 meq/L
  LDH: 156.6 IU/L
  Na: 141.8 meq/L
  PL: 149.6 mg/dL
  RALB: 3.1 g/dL
  TBIL: 0.09 mg/dL
  TC: 87 mg/dL
  TG: 76.6 mg/dL
  TP: 6 g/dL
  gamma-GTP: 2.4 IU/L
